# In patent US11746100B2 (GLOBAL BLOOD THERAPEUTICS, INC., priority 2020, dated 2023):
# Target: T1, human ferroportin (Homo sapiens, UniProt Q9NP59)
# T1 construct: luciferase reporter (read with the Nano-Glo Luciferase Assay System); expressed in transfected cells; host or cells: CHO cells, stably transfected, expression induced with doxycycline
# T1 sequence (Q9NP59 1-571): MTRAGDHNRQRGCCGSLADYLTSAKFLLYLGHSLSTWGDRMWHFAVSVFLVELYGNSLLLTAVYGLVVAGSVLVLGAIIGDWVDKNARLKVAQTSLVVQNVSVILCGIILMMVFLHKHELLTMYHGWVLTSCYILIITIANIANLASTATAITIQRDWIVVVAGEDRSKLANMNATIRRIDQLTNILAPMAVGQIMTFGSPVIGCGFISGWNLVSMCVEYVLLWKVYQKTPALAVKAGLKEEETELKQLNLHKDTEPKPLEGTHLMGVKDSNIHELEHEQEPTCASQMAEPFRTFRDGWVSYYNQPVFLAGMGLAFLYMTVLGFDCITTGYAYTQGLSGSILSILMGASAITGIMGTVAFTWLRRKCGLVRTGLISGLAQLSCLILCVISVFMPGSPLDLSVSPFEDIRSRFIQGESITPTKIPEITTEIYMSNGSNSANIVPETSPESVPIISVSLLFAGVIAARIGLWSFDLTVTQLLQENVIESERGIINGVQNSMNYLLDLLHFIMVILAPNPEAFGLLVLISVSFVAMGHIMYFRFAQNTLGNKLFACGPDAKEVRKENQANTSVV
# Experiment: Biological in-vitro ferroportin internalization assay (luciferase reporter)
# Assay type: cell-based
# Settings: average pEC50; stably-transfected CHO cell line expressing human ferroportin tagged to a luciferase reporter; 6 h incubation with test compound
# In short: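 Stably transfected CHO cells expressing luciferase-tagged human ferroportin, plated 24 h with ferric ammonium citrate and induced with doxycycline for 24 h. Compounds incubated 6 h, then luciferase activity measured by Nano-Glo; average pEC50 reported.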
row,Structure (SMILES),pEC50
1,"CN(C)c1ccnc(-c2nc3c(c(N(C)CC(=O)NC(C)(C)C)n2)CCC3)c1 [Compound 102, N-tert-butyl-2-({2-[4-(dimethylamino)pyridin-2-yl]-5H,6H,7H-cyclopenta[d]pyrimidin-4-yl}(methyl)amino)acetamide]",7.1
2,"CCNC(=O)CN(C)c1nc(-c2cc(OCC3(O)CC3)ccn2)nc2c1CCC2 [Compound 441, N-ethyl-2-[(2-{4-[(1-hydroxycyclopropyl)methoxy]pyridin-2-yl}-5H,6H,7H-cyclopenta[d]pyrimidin-4-yl)(methyl)amino]acetamide]",7.5
3,"C[C@H](C(=O)NC(C)(C)C)N(C)c1nc(-c2cc(O[C@@H]3CCN(C)C3)ccn2)nc2c1CCC2 [Compound 503, (2R)—N-tert-butyl-2-{methyl[2-(4-{[(3R)-1-methylpyrrolidin-3-yl]oxy}pyridin-2-yl)-5H,6H,7H-cyclopenta[d]pyrimidin-4-yl]amino}propanamide]",8.5
4,CSCC[C@@H](C(=O)NC(C)(C)C)N(C)c1nc(-c2ccccn2)nc2c1CCC2 [Compound 117],6.9
5,"COc1ccnc(-c2nc3c(c(N(C)CC(=O)Nc4ccc(C)nc4)n2)CCC3)c1 [Compound 200, 2-{[2-(4-methoxypyridin-2-yl)-5H,6H,7H-cyclopenta[d]pyrimidin-4-yl](methyl)amino}-N-(6-methylpyridin-3-yl)acetamide]",7.6
6,"COc1ccnc(-c2nc3c(c(N(C)CC(=O)NC4COC4)n2)CCC3)c1 [Compound 373, 2-{[2-(4-methoxypyridin-2-yl)-5H,6H,7H-cyclopenta[d]pyrimidin-4-yl](methyl)amino}-N-(oxetan-3-yl)acetamide]",7.3
7,"c1ccc(-c2nc3c(c(N4CC5CC(C4)c4ccccc45)n2)CCC3)nc1 [Compound 1, 10-[2-(pyridin-2-yl)-5H,6H,7H-cyclopenta[d]pyrimidin-4-yl]-10-azatricyclo[6.3.1.0^{2,7}]dodeca-2,4,6-triene]",6.9
8,"CCN(CC)CCOc1ccnc(-c2nc3c(c(N(C)CC(=O)NC(C)(C)C)n2)CCC3)c1 [Compound 400, N-tert-butyl-2-[(2-{4-[2-(diethylamino)ethoxy]pyridin-2-yl}-5H,6H,7H-cyclopenta[d]pyrimidin-4-yl)(methyl)amino]acetamide]",8.2
9,"COc1ccnc(-c2nc3c(c(N(C)CC(=O)N4CC[C@H](O)C4)n2)CCC3)c1 [Compound 472, 1-[(3S)-3-hydroxypyrrolidin-1-yl]-2-{[2-(4-methoxypyridin-2-yl)-5H,6H,7H-cyclopenta[d]pyrimidin-4-yl](methyl)amino}ethan-1-one]",7.4
10,"CN(CC(=O)N1CCC(F)(F)CC1)c1nc(-c2cc(OCC(C)(C)O)ccn2)nc2c1CCC2 [Compound 391, 1-(4,4-difluoropiperidin-1-yl)-2-({2-[4-(2-hydroxy-2-methylpropoxy)pyridin-2-yl]-5H,6H,7H-cyclopenta[d]pyrimidin-4-yl}(methyl)amino)ethan-1-one]",7.7
11,"CN(CC(=O)NC(C)(C)C)c1nc(-c2cc(CCC(C)(C)O)ccn2)nc2c1CCC2 [Compound 481, N-tert-butyl-2-({2-[4-(3-hydroxy-3-methylbutyl)pyridin-2-yl]-5H,6H,7H-cyclopenta[d]pyrimidin-4-yl}(methyl)amino)acetamide]",7.7
12,"CC(C)NC(=O)CN(C)c1nc(-c2cc(OCCN(C)C)ccn2)nc2c1C(C)(C)CC2 [Compound 435, 2-[(2-{4-[2-(dimethylamino)ethoxy]pyridin-2-yl}-5,5-dimethyl-5H,6H,7H-cyclopenta[d]pyrimidin-4-yl)(methyl)amino]-N-(propan-2-yl)acetamide]",7.8
13,"CN(CC(=O)NCc1ccccn1)c1nc(-c2ccccn2)nc2c1CCC2 [Compound 38, 2-{methyl[2-(pyridin-2-yl)-5H,6H,7H-cyclopenta[d]pyrimidin-4-yl]amino}-N-[(pyridin-2-yl)methyl]acetamide]",6.6
14,"CN(CC(=O)NC(C)(C)C)c1nc(-c2c[nH]cn2)nc2c1CCC2 [Compound 182, N-tert-butyl-2-{[2-(1H-imidazol-4-yl)-5H,6H,7H-cyclopenta[d]pyrimidin-4-yl](methyl)amino}acetamide]",7.6
15,"C[C@H](CO)Oc1ccnc(-c2nc3c(c(N(C)CC(=O)NC(C)(C)C)n2)CCC3)c1 [Compound 384, N-tert-butyl-2-{[2-(4-{[(2R)-1-hydroxypropan-2-yl]oxy}pyridin-2-yl)-5H,6H,7H-cyclopenta[d]pyrimidin-4-yl](methyl)amino}acetamide]",8.1
16,"O=C1CN(c2nc(-c3ccccn3)nc3c2CCC3)CCCN1 [Compound 47, 4-[2-(pyridin-2-yl)-5H,6H,7H-cyclopenta[d]pyrimidin-4-yl]-1,4-diazepan-2-one]",5.7
17,"C[C@@H]1C[C@@H](Oc2ccnc(-c3nc4c(c(N(C)CC(=O)NC(C)(C)C)n3)CCC4)c2)CN1C [Compound 488, N-tert-butyl-2-{[2-(4-{[(3R,5R)-1,5-dimethylpyrrolidin-3-yl]oxy}pyridin-2-yl)-5H,6H,7H-cyclopenta[d]pyrimidin-4-yl](methyl)amino}acetamide]",7.8
18,"Cc1cc(-c2nc3c(c(N(C)CC(=O)NC(C)(C)C)n2)CCC3)ncc1F [Compound 303, N-tert-butyl-2-{[2-(5-fluoro-4-methylpyridin-2-yl)-5H,6H,7H-cyclopenta[d]pyrimidin-4-yl](methyl)amino}acetamide]",6.4
19,"CN1CCN(C(=O)CN(C)c2nc(-c3cc4ccccc4cn3)nc3c2CCC3)CC1 [Compound 256, 2-{[2-(isoquinolin-3-yl)-5H,6H,7H-cyclopenta[d]pyrimidin-4-yl](methyl)amino}-1-(4-methylpiperazin-1-yl)ethan-1-one]",6.6
20,"CN(CC(=O)N1CCC(F)CC1)c1nc(-c2cc(OCCO)ccn2)nc2c1CCC2 [Compound 359, 1-(4-fluoropiperidin-1-yl)-2-({2-[4-(2-hydroxyethoxy)pyridin-2-yl]-5H,6H,7H-cyclopenta[d]pyrimidin-4-yl}(methyl)amino)ethan-1-one]",7.5
21,"CN(CC(=O)NC(C)(C)C)c1nc(-c2cc(OCCO)ccn2)nc2c1CCC2 [Compound 44, N-tert-butyl-2-({2-[4-(2-hydroxyethoxy)pyridin-2-yl]-5H,6H,7H-cyclopenta[d]pyrimidin-4-yl}(methyl)amino)acetamide]",7.9
22,"COc1cccc(N2CCCN(c3nc(-c4ccccn4)nc4c3CCC4)CC2)c1 [Compound 4, 1-(3-methoxyphenyl)-4-[2-(pyridin-2-yl)-5H,6H,7H-cyclopenta[d]pyrimidin-4-yl]-1,4-diazepane]",6.4
23,"Cc1cccnc1-c1nc2c(c(N(C)CC(=O)NC(C)(C)C)n1)CCC2 [Compound 103, N-tert-butyl-2-{methyl[2-(3-methylpyridin-2-yl)-5H,6H,7H-cyclopenta[d]pyrimidin-4-yl]amino}acetamide]",6.4
24,"COc1ccc(NC(=O)[C@@H](C)N(C)c2nc(-c3cc(OCCO)ccn3)nc3c2CCC3)cn1 [Compound 309, (2R)-2-({2-[4-(2-hydroxyethoxy)pyridin-2-yl]-5H,6H,7H-cyclopenta[d]pyrimidin-4-yl}(methyl)amino)-N-(6-methoxypyridin-3-yl)propanamide]",8.1
25,"O=C1CCCCCN1c1nc(-c2ccccn2)nc2c1CCC2 [Compound 46, 1-[2-(pyridin-2-yl)-5H,6H,7H-cyclopenta[d]pyrimidin-4-yl]azepan-2-one]",5.1
26,"COc1ccnc(-c2nc3c(c(N(C)CC(=O)NC4CCCCC4)n2)CCC3)c1 [Compound 137, N-cyclohexyl-2-{[2-(4-methoxypyridin-2-yl)-5H,6H,7H-cyclopenta[d]pyrimidin-4-yl](methyl)amino}acetamide]",7.8
27,"Cc1cnc(-c2nc3c(c(N(C)CC(=O)NC(C)(C)C)n2)CCC3)cc1OCCO [Compound 191, N-tert-butyl-2-({2-[4-(2-hydroxyethoxy)-5-methylpyridin-2-yl]-5H,6H,7H-cyclopenta[d]pyrimidin-4-yl}(methyl)amino)acetamide]",7
28,"COc1ccnc(-c2nc3c(c(N(C)CC(=O)N[C@@H]4CCCC[C@@H]4O)n2)CCC3)c1 (stereo in doubt) [Compound 168, N-[(1R,2S)-2-hydroxycyclohexyl]-2-{[2-(4-methoxypyridin-2-yl)-5H,6H,7H-cyclopenta[d]pyrimidin-4-yl](methyl)amino}acetamide]",7.3
29,"CN(CC(=O)NC1(C(F)(F)F)CC1)c1nc(-c2cc(OCC(C)(C)O)ccn2)nc2c1CCC2 [Compound 337, 2-({2-[4-(2-hydroxy-2-methylpropoxy)pyridin-2-yl]-5H,6H,7H-cyclopenta[d]pyrimidin-4-yl}(methyl)amino)-N-[1-(trifluoromethyl)cyclopropyl]aceta-mide]",7.4
30,"CN(CC(=O)NC(C)(C)C)c1nc(-c2cc(OCCN3CC[C@@H](F)C3)ccn2)nc2c1CCC2 [Compound 473, N-tert-butyl-2-{[2-(4-{2-[(3R)-3-fluoropyrrolidin-1-yl]ethoxy}pyridin-2-yl)-5H,6H,7H-cyclopenta[d]pyrimidin-4-yl](methyl)amino}acetamide]",8.3
